Experimental data: patent US4876282A, “1-Phenylalkylamines as selective serotonin uptake inhibitors” (Eli Lilly and Company, priority 1987, dated 1989)
Where a name gives a salt, the structure may show the parent alone.

system: 5HT uptake; assay: Inhibition of 5HT uptake in vitro (synaptosomal uptake of 3H-serotonin, rat cerebral cortex); format: biochemical, Sprague-Dawley rat; conditions: rat cortical synaptosomes, 37° C., 5 min, 50 nM 3H-5HT; tested as oxalate salt; read-out: IC50 5HT (concentration needed to inhibit 50% of serotonin uptake)
Experimental: This general procedure is set forth by Wong et al., in Drug Development Research 6:397-403 (1985).
Male Sprague-Dawley rats (110-150 g) from Harlan Industries (Cumberland, Ind.) were fed Purina Chow ad libitum for at least 3 days before being used in the studies. Rats were killed by decapitation. Whole brains were removed and dissected. Cerebral cortex was homogenized in 9 volumes of a medium containing 0.32 M sucrose and 10 mM glucose. Crude synaptosomal preparations were isolated after differential centrifugation at 1,000 g for 10 min. and 17,000 g for 28 min. The final pellets were suspended in the same medium and kept in ice until use within the same day.
Synaptosomal uptake of ^3 H-serotonin(^3 H-5-hydroxytryptamine, ^3 H-5HT) was determined as follows. Cortical synaptosomes (equivalent to 1 mg of protein) were incubated at 37° C. for 5 min in 1 ml of Krebsbicarbonate medium containing also 10 mM glucose, 0.1 mM iproniazid, 1 mM ascorbic acid, 0.17 mM EDTA and 50 nM ^3 H-5HT. The reaction mixture was immediately diluted with 2 ml of ice-chilled Krebs-bicarbonatebuffer and filtered under vacuum with a cell harvester (Brandel, Gaithersburg, Md). Filters were rinsed twice with approximately 5 ml of ice-chilled 0.9% saline and were transferred to a counting vial containing 10 ml of scintillation fluid (PCS, Amersham, Arlington Heights, Il). Radioactivity was measured by a liquid scintillation spectrophotometer. Accumulation of ^3 H-5HT at 4° C. represented the background and was subtracted from all samples.
The numbers in parentheses represent percent inhibition at 1000 nM.

First: CN(C)C(CCCc1cccc2ccccc12)c1ccccc1 (stereo not shown) [Example 2, N,N-Dimethyl-1-phenyl-4-(1-naphthalenyl)butylaminium oxalate]
Second: CN(C)C(CCc1cccc2ccccc12)c1ccccc1 (stereo not shown) [Example 4, N,N-Dimethyl-1-phenyl-3-(1-naphthalenyl)propylaminium oxalate]
The IC50 of the first is 8-fold lower: 30 nM for the first, 240 nM for the second. The first is the more potent here.

Compared with `NC(CCCc1cccc2ccccc12)c1ccccc1` (stereo not shown) [Example 1, 1-Phenyl-4-(1-napthalenyl)butylaminium oxalate], `CNC(CCCc1cccc2ccccc12)c1ccccc1` (stereo not shown) [Example 3, N-Methyl-1-phenyl-4-(1-naphthalenyl)butyl-aminium oxalate] is 3.4-fold lower in IC50: 240 nM for the first, 70 nM for the second. The second is the more potent here.
